Converted amounts (≈) assume the structure as drawn.

Assay [1] is filed under the species Rattus norvegicus. In words: Compound was tested in vitro for its ability to inhibit histamine release from rat mast cells. Format: functional. Conditions: read-out: ED50 (the source's name).
The species entered for assay [2] is Rattus norvegicus. In words: GnRH antagonistic dose of compound for 8 rats ovulation out of total 10 using anti-ovulatory assay. Format: functional.
The species named for assay [3] is Rattus norvegicus. In words: Dissociation constant was determined in rat pituitary cells. Type of assay: cell-based. The note with it: pituitary gland cell.
The target in assay [4] is T1, Gonadotropin-releasing hormone receptor (Rattus norvegicus) (UniProt P30969).
T1 sequence (whole entry): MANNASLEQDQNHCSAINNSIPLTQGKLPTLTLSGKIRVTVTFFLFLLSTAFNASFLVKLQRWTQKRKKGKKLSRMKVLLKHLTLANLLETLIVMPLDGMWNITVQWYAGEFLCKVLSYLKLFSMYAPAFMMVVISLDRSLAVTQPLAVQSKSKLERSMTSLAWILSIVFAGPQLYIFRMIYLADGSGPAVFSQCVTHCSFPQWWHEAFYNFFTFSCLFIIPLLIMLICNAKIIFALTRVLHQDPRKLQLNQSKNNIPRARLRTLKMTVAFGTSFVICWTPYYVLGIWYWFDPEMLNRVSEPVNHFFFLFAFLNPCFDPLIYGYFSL
In words: Inhibition of GnRH-mediated LH secretion by cultured pituitary cells. Format: functional, cell-based. The note with it: Pituitary gland cell.

The species entered for assay [5] is Rattus norvegicus. In words: GnRH antagonistic dose of compound for 10 rats ovulation out of total 10 using anti-ovulatory assay. Type of assay: functional.
The species entered for assay [6] is Rattus norvegicus. In words: Compound was evaluated for time course of action on LH secretion in the castrated male rat at a time interval of 67 hr at 125 microg. Format: functional.
For assay [7], the species on record is Rattus norvegicus. In words: Compound was evaluated for time course of action on LH secretion in the castrated male rat at a time interval of 0 hr at 25 microg. Format: functional.
The species named for assay [8] is Rattus norvegicus. In words: Compound was evaluated for time course of action on LH secretion in the castrated male rat at a time interval of 43 hr at 25 microg. Type of assay: functional.
The species named for assay [9] is Rattus norvegicus. In words: Compound was evaluated for time course of action on LH secretion in the castrated male rat at a time interval of 0 hr at 125 microg. Format: functional.
The species entered for assay [10] is Rattus norvegicus. In words: Compound was evaluated for time course of action on LH secretion in the castrated male rat at a time interval of 73 hr at 25 microg. Type of assay: functional.
The species entered for assay [11] is Rattus norvegicus. In words: Compound was evaluated for time course of action on LH secretion in the castrated male rat at a time interval of 73 hr at 125 microg. Type of assay: functional.
For assay [12], the species on record is Rattus norvegicus. In words: Compound was evaluated for time course of action on LH secretion in the castrated male rat at a time interval of 49 h at 125 microg. Type of assay: functional.
The species entered for assay [13] is Rattus norvegicus. In words: Compound was evaluated for time course of action on LH secretion in the castrated male rat at a time interval of 1 hr at 125 microg. Format: functional.
For assay [14], the species on record is Rattus norvegicus. In words: Compound was evaluated for time course of action on LH secretion in the castrated male rat at a time interval of 19 hr at 25 microg. Format: functional.
The species named for assay [15] is Rattus norvegicus. In words: Compound was evaluated for time course of action on LH secretion in the castrated male rat at a time interval of 19 hr at 125 microg. Format: functional.
Assay [16] is filed under the species Rattus norvegicus. In words: Compound was evaluated for time course of action on LH secretion in the castrated male rat at a time interval of 49 hr at 25 microg. Type of assay: functional.
For assay [17], the species on record is Rattus norvegicus. In words: Compound was evaluated for time course of action on LH secretion in the castrated male rat at a time interval of 1 hr at 25 microg. Format: functional.
The species named for assay [18] is Rattus norvegicus. In words: Compound was evaluated for time course of action on LH secretion in the castrated male rat at a time interval of 67 hr at 25 microg. Type of assay: functional.
For assay [19], the species on record is Rattus norvegicus. In words: Compound was evaluated for time course of action on LH secretion in the castrated male rat at a time interval of 43 hr at 125 microg. Type of assay: functional.
The species entered for assay [20] is Rattus norvegicus. In words: GnRH antagonistic dose of compound for 9 rats ovulation out of total 20 using anti-ovulatory assay. Type of assay: functional.
For assay [21], the species on record is Rattus norvegicus. In words: GnRH antagonistic dose of compound for 0 rats ovulation out of total 10 using anti-ovulatory assay in experiment 2. Type of assay: functional.
The species entered for assay [22] is Rattus norvegicus. In words: GnRH antagonistic dose of compound for 1 rats ovulation out of total 10 using anti-ovulatory assay in experiment 1. Format: functional.

Take `CC(=O)N[C@H](Cc1ccc2ccccc2c1)C(=O)N[C@H](Cc1ccc(Cl)cc1)C(=O)N[C@H](Cc1cccnc1)C(=O)N[C@@H](CO)C(=O)N[C@@H](CCCN=C(N)N)C(=O)N[C@H](Cc1ccc2ccccc2c1)C(=O)N[C@@H](CC(C)C)C(=O)N[C@@H](CCCN=C(N)N)C(=O)N1CCC[C@@H]1C(=O)N[C@H](C)C(=O)O`: in the assay listed under Rattus norvegicus [1], the EC50 is 1.9 µg/mL (≈ 1.3 µM). Also, the ED100 in the assay listed under Rattus norvegicus [2] worked out at 1 µg/kg. Also, the Kd in the assay listed under Rattus norvegicus [3] was 5000 pM. The Relative potency in assay [4] stood at 0.88.
Turning to `CC(=O)N[C@H](Cc1ccc2ccccc2c1)C(=O)N[C@H](Cc1ccc(F)cc1)C(=O)N[C@H](Cc1c[nH]c2ccccc12)C(=O)N[C@@H](CO)C(=O)N[C@@H](Cc1ccc(O)cc1)C(=O)N[C@H](CCCN=C(N)N)C(=O)N[C@@H](CC(C)C)C(=O)N[C@@H](CCCN=C(N)N)C(=O)N1CCC[C@H]1C(=O)NCC(=O)O`, in the assay listed under Rattus norvegicus [1], the EC50 stood at 0.17 µg/mL (≈ 0.118 µM).
As for `CC(=O)N[C@H](Cc1ccc2ccccc2c1)C(=O)N[C@H](Cc1ccc(Cl)cc1)C(=O)N[C@H](Cc1cccnc1)C(=O)N[C@@H](CO)C(=O)N[C@@H](CCCN=C(N)N)C(=O)N[C@H](Cc1cn(Cc2ccccc2)cn1)C(=O)N[C@@H](CC(C)C)C(=O)N[C@@H](CCCN=C(N)N)C(=O)N1CCC[C@H]1C(=O)N[C@H](C)C(N)=O`, in the assay listed under Rattus norvegicus [1], the EC50 is 4.4 µg/mL (≈ 2.94 µM). For the same compound, the ED100 in the assay listed under Rattus norvegicus [2] was 0.5 µg/kg.
The corresponding values for `COc1ccc(C(=O)CC[C@@H](NC(=O)[C@H](CCCN=C(N)N)NC(=O)[C@H](CO)NC(=O)[C@@H](Cc2cccnc2)NC(=O)[C@@H](Cc2ccc(Cl)cc2)NC(=O)[C@@H](Cc2ccc3ccccc3c2)NC(C)=O)C(=O)N(C)[C@@H](CC(C)C)C(=O)N[C@@H](CCCN=C(N)N)C(=O)N2CCC[C@H]2C(=O)N[C@H](C)C(N)=O)cc1` are 4.6 µg/mL (≈ 3.07 µM) and 1 µg/kg.
In the assay filed under Rattus norvegicus [5], `COc1ccc(C(=O)CC[C@@H](NC(=O)[C@H](Cc2ccc(O)cc2)NC(=O)[C@H](CO)NC(=O)[C@@H](Cc2cccnc2)NC(=O)[C@@H](Cc2ccc(Cl)cc2)NC(=O)[C@H]2CCCN2C(C)=O)C(=O)N(C)[C@@H](CC(C)C)C(=O)N[C@@H](CCCN=C(N)N)C(=O)N2CCC[C@H]2C(=O)N[C@H](C)C(=O)O)cc1` displayed an ED100 of 5 µg/kg. Besides, the EC50 in the assay listed under Rattus norvegicus [1] was 30.3 µg/mL (≈ 21.5 µM).
As for `CC(=O)N1CCC[C@@H]1C(=O)N[C@H](Cc1ccc(F)cc1)C(=O)N[C@H](Cc1c[nH]c2ccccc12)C(=O)N[C@@H](CO)C(=O)N[C@@H](CCCN=C(N)N)C(=O)N[C@H](Cc1ccc2ccccc2c1)C(=O)N[C@@H](CC(C)C)C(=O)N[C@@H](CCCN=C(N)N)C(=O)N1CCC[C@H]1C(=O)NCC(N)=O`, the LH level stood at 2.74 ng/mL in the assay filed under Rattus norvegicus [6]; 10.25 ng/mL in the assay listed under Rattus norvegicus [7]; 4.38 ng/mL in the assay listed under Rattus norvegicus [8]; 12.47 ng/mL in the assay filed under Rattus norvegicus [9]; 9.15 ng/mL in the assay listed under Rattus norvegicus [10]; 4.58 ng/mL in the assay listed under Rattus norvegicus [11]. The LH level in the assay filed under Rattus norvegicus [12] was 2.5 ng/mL; in the assay listed under Rattus norvegicus [13], 6.17 ng/mL; in the assay filed under Rattus norvegicus [14], 2.78 ng/mL; in the assay listed under Rattus norvegicus [15], 3 ng/mL; in the assay listed under Rattus norvegicus [16], 5.46 ng/mL; in the assay filed under Rattus norvegicus [17] it was 5.68 ng/mL. In addition, the LH level in the assay filed under Rattus norvegicus [18] was determined as 8.23 ng/mL; in the assay listed under Rattus norvegicus [19] it was 2.63 ng/mL.
With `CC(=O)N[C@H](Cc1ccc2ccccc2c1)C(=O)N[C@H](Cc1ccc(Cl)cc1)C(=O)N[C@H](Cc1cccnc1)C(=O)N[C@@H](CO)C(=O)N[C@@H](CCCN=C(N)N)C(=O)N[C@H](Cc1cn(C=O)c2ccccc12)C(=O)N[C@@H](CC(C)C)C(=O)N[C@@H](CCCN=C(N)N)C(=O)N1CCC[C@H]1C(=O)N[C@H](C)C(=O)O`, in the assay listed under Rattus norvegicus [20], the ED100 came out at 0.5 µg/kg. Moreover, the EC50 in the assay listed under Rattus norvegicus [1] came to 3.4 µg/mL (≈ 2.29 µM). In the assay listed under Rattus norvegicus [3], the Kd is 480 pM. Also, the Relative potency in assay [4] was 0.95.
Turning to `COc1ccc(C(=O)CC[C@@H](NC(=O)[C@H](CCCN=C(N)N)NC(=O)[C@H](CO)NC(=O)[C@@H](Cc2cccnc2)NC(=O)[C@@H](Cc2ccc(Cl)cc2)NC(=O)[C@@H](Cc2ccc3ccccc3c2)NC(C)=O)C(=O)N[C@@H](CC(C)C)C(=O)N[C@@H](CCCN=C(N)N)C(=O)N2CCC[C@H]2C(=O)NCC(=O)O)cc1`, the ED100 worked out at 2.5 µg/kg in the assay filed under Rattus norvegicus [21] and 1 µg/kg in the assay listed under Rattus norvegicus [22]. Further, the EC50 in the assay filed under Rattus norvegicus [1] came to 3.2 µg/mL (≈ 2.17 µM). Moreover, the Kd in the assay filed under Rattus norvegicus [3] is 600 pM.

For orientation: Kd means the concentration at which binding is half-saturated. A higher Kd goes with weaker binding.

For the origin of these results see ChEMBL document CHEMBL1123223, “New effective gonadotropin releasing hormone antagonists with minimal potency for histamine release in vitro” (J Med Chem, 1986).
